From ChEMBL document CHEMBL1143211, “Inhibitors of proteases and amide hydrolases that employ an alpha-ketoheterocycle as a key enabling functionality” (Bioorg Med Chem, 2008)
Values belong to the molecule of their own block, whether it stands above or below them.

Experiments:
[1] = Inhibition of HDAC
Cathepsin S = Cathepsin S (Homo sapiens, UniProt P25774); assay: Inhibition of human recombinant cathepsin S
[2] = Selectivity for rat FAAH over triacylglycerol hydrolase
Prolyl endopeptidase = Prolyl endopeptidase (Sus scrofa, UniProt P23687)
[3] = Inhibition of human beta-tryptase
[4] = Inhibition of bovine trypsin; parameters: species or system Bos taurus
Cathepsin B = Cathepsin B (Homo sapiens, UniProt P07858); assay: Inhibition of human liver cathepsin B
Cathepsin K = molecular target: T1, Cathepsin K (Homo sapiens, UniProt P43235); assay: Inhibition of human recombinant cathepsin K
T1 sequence (P43235 whole entry): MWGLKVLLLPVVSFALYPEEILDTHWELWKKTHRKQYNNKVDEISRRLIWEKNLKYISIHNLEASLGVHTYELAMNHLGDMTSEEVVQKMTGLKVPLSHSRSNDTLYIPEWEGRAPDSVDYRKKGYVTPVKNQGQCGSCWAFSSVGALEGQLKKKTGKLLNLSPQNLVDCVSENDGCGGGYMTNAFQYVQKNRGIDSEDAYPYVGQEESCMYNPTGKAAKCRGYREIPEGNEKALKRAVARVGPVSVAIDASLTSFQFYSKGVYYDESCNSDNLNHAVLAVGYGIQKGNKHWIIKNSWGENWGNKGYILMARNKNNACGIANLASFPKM

Procathepsin L = Procathepsin L (Homo sapiens, UniProt P07711); assay: Inhibition of human recombinant cathepsin L
[5] = Oral bioavailability in rat; format: ADME, organism-based; settings: in vivo
Prothrombin = Prothrombin (Homo sapiens, UniProt P00734); assay: Inhibition of human alpha-thrombin
[6] = Selectivity for human alpha-thrombin over bovine trypsin
[7] = molecular target: T2, Fatty-acid amide hydrolase 1 (Rattus norvegicus, UniProt P97612)
T2 sequence (P97612 whole entry): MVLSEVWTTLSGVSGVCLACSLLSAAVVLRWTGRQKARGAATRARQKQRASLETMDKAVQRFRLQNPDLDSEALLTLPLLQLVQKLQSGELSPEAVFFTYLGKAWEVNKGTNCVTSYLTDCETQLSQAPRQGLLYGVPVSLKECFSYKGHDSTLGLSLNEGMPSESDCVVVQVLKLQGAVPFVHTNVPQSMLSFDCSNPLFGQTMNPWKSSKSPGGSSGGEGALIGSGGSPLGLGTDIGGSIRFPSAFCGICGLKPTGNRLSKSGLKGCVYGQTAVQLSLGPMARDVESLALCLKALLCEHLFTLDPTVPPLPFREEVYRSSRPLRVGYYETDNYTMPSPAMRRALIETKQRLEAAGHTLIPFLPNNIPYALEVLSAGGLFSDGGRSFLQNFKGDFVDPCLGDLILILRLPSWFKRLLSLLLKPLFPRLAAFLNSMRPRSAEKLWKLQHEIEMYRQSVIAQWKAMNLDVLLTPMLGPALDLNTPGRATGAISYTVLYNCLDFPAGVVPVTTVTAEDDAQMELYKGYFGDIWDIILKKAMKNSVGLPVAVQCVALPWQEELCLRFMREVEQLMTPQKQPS

Chain of Cathepsin S (P25774 whole entry): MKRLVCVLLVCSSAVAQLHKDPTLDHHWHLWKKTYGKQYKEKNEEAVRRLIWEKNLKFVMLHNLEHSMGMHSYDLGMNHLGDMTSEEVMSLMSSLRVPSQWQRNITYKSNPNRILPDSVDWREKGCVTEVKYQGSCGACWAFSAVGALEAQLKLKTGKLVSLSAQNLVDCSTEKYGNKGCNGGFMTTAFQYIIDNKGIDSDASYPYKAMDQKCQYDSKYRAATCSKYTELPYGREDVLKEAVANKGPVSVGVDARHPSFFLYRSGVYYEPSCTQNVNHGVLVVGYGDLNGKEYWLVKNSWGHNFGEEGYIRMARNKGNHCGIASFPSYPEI
Chain of Procathepsin L (P07711 whole entry): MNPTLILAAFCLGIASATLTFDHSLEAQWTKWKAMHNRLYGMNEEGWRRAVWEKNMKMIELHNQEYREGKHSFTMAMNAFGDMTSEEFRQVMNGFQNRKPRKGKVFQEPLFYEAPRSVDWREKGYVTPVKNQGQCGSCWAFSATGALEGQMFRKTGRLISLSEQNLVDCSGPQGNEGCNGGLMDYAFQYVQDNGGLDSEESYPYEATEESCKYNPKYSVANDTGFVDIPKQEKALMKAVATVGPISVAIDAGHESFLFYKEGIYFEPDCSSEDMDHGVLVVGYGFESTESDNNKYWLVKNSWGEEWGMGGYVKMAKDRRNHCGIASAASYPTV
Chain of Prolyl endopeptidase (P23687 whole entry): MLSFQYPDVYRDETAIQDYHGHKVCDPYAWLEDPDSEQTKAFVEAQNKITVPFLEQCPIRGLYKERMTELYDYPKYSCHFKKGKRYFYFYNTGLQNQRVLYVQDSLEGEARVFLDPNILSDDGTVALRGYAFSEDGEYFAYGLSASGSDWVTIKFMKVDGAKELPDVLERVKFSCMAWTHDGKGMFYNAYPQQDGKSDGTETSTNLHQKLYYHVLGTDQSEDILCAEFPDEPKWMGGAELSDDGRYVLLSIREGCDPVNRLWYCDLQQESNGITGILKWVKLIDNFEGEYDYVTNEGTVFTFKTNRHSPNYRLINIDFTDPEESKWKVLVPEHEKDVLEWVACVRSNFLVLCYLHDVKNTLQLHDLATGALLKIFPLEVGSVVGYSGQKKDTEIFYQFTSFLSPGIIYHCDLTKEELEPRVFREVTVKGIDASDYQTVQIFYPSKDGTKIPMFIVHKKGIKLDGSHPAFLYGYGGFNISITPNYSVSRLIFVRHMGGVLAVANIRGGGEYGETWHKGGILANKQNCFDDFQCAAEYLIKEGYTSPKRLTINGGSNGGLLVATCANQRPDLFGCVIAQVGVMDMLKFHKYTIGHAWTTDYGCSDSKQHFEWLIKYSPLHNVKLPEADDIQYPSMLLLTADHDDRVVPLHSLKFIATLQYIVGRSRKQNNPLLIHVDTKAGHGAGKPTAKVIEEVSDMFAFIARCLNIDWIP

IC50 [1]: 430 nM
SMILES: O=C(CCCCCCNc1ccc2ccccc2c1)c1ncco1

Ki (Cathepsin S): < 10 nM
SMILES: CC[C@H](NC(=O)[C@H](CS(=O)(=O)Cc1ccccc1)OC(=O)N1CCOCC1)C(=O)c1nc2ccccc2o1

Selectivity ratio [2]: 600
SMILES: O=C(CCCCCCCCc1ccccc1)c1nnc(-c2ccccn2)o1

IC50 [1]: > 50000 nM
SMILES: O=C(CCCCCCOc1ccc(-c2ccccc2)cc1)c1ncc[nH]1

IC50 (Prolyl endopeptidase): 6.9 nM
SMILES: O=C(c1ccccn1)[C@@H]1CCCN1C(=O)[C@@H]1CCCN1CCCc1ccccc1

Ki (Cathepsin S): < 100 nM
SMILES: CCCC(F)(F)C[C@H](NC(=O)N1CCOCC1)C(=O)N[C@@H](CC)C(=O)c1nc(C2CC2)no1

Ki [3]: 250 nM
Ki [4]: 160 nM
SMILES: N=C(N)NCCC[C@H](NC(=O)[C@@H]1CCCN1C(=O)c1ccccc1)C(=O)c1nc2ccccc2s1

Ki (Cathepsin B): 2 nM
Ki (Cathepsin K): < 0.25 nM
Ki (Procathepsin L): 1 nM
Ki (Cathepsin S): < 0.25 nM
SMILES: CCCC[C@H](NC(=O)C(=O)[C@H](CC(C)C)NC(=O)OCc1ccccc1)C(=O)c1nnc(-c2ccco2)o1

bioavailability [5]: < 5%
SMILES: NCCCC[C@H](NC(=O)[C@@H]1CCCN1C(=O)[C@@H](CC1CCCCC1)NCC(=O)O)C(=O)c1ncco1

IC50 [1]: 1000 nM
SMILES: O=C(CCCCCCOc1ccc(-c2ccccc2)cc1)C1=NCCO1

Ki [4]: 5.4 nM
Ki (Prothrombin): 4.5 nM
SMILES: CCOC(=O)c1csc(C(=O)[C@H](CCCNC(=N)N)NC(=O)[C@@H]2CCCN2C(=O)[C@@H](Cc2ccccc2)NC)n1

IC50 [1]: > 50000 nM
SMILES: O=C(CCCCCCOc1ccc(-c2ccccc2)cc1)c1nccs1

Ki [4]: 4.4 nM
Ratio Ki [6]: 15
SMILES: CN[C@H](Cc1ccccc1)C(=O)N1CCC[C@H]1C(=O)N[C@@H](CCCN=C(N)N)C(=O)c1nc2c(s1)CCCC2

Ki [3]: 33 nM
Ki [4]: 38 nM
SMILES: CS(=O)(=O)N1CCC[C@H]1C(=O)N[C@@H](CCCNC(=N)N)C(=O)c1nc2ccccc2s1

Ki (Cathepsin B): 16000 nM
Ki (Cathepsin K): 500 nM
Ki (Procathepsin L): 14000 nM
Ki (Cathepsin S): 380 nM
SMILES: CCCC[C@H](NC(=O)OCC(C)C)C(=O)c1nnc(-c2ccco2)o1

IC50 (Prolyl endopeptidase): 80 nM
SMILES: CC(NC(=O)[C@H](CC(=O)N(C)C)NC(=O)[C@@H](NC(=O)CC(C)(C)C)C(C)(C)C)C(=O)c1nc2ccccc2o1 (stereo not given in full)

IC50 (Prolyl endopeptidase): 13 nM
SMILES: O=C(c1cscn1)[C@@H]1CCCN1C(=O)[C@@H]1CCCN1CCCc1ccccc1

Ki (Cathepsin B): 7000 nM
Ki (Cathepsin K): 8.5 nM
Ki (Procathepsin L): 70 nM
Ki (Cathepsin S): 30 nM
SMILES: CC(C)C[C@H](NC(=O)C1CCNCC1)C(=O)N[C@@H](CCc1ccccc1)C(=O)c1nc2cc(C(C)(C)C)ccc2o1

IC50 [1]: 60 nM
SMILES: O=C(CCCCCCC(=O)c1ncco1)Nc1cccc(-c2ccccc2)c1

Ki [4]: 13 nM
Ratio Ki [6]: 30
SMILES: CN[C@H](Cc1ccccc1)C(=O)N1CCC[C@H]1C(=O)N[C@@H](CCCN=C(N)N)C(=O)c1nc2ccccc2o1

IC50 (Prolyl endopeptidase): 1100 nM
SMILES: O=C(c1cncs1)[C@@H]1CCCN1C(=O)[C@@H]1CCCN1CCCc1ccccc1

IC50 (Prolyl endopeptidase): 4 nM
SMILES: O=C(c1nc2ccccc2s1)[C@@H]1CCCN1C(=O)[C@@H]1CCCN1CCCc1ccccc1

IC50 [1]: 310 nM
SMILES: O=C(CCCCCC(=O)c1ncco1)Nc1cccc(-c2ccccc2)c1

Ki (Cathepsin S): < 100 nM
SMILES: CCCC[C@H](NC(=O)[C@H](CS(=O)(=O)Cc1ccccc1)NC(=O)N1CCOCC1)C(=O)c1nnc(-c2ccccc2)o1

Ki [4]: 1.2 nM
Ratio Ki [6]: 10
SMILES: CN[C@H](Cc1ccccc1)C(=O)N1CCC[C@H]1C(=O)N[C@@H](CCCN=C(N)N)C(=O)c1nccs1

Ki [3]: 41 nM
SMILES: CC(=O)N[C@@H](CC(C)C)C(=O)N[C@@H](CCCN=C(N)N)C(=O)c1nc2ccccc2s1

IC50 [1]: 1000 nM
SMILES: O=C(CCCCCCOc1ccc(-c2ccccc2)cc1)c1ncco1

Ki [3]: 19 nM
IC50 (Prothrombin): 14000 nM
SMILES: CC(=O)N1CCC[C@H]1C(=O)N[C@@H](CCCN=C(N)N)C(=O)c1nc2ccccc2s1

Ki [3]: 14000 nM
SMILES: CC(=O)N1CCC[C@@H]1C(=O)N[C@@H](CCCN=C(N)N)C(=O)c1nc2ccccc2s1

Ki [7]: 0.6 nM
Selectivity ratio [2]: 2000
SMILES: Cc1ccnc(-c2cnc(C(=O)CCCCCCc3ccccc3)o2)c1

Ki [4]: 73 nM
SMILES: CN[C@H](Cc1ccccc1)C(=O)N1CCC[C@H]1C(=O)N[C@@H](CCCNC(=N)N)C(=O)c1ccccn1

Ki [3]: 180 nM
SMILES: CC(=O)N1C[C@H](O)C[C@H]1C(=O)N[C@@H](CCCNC(=N)N)C(=O)c1nccs1

Ki [4]: 290 nM
SMILES: CN[C@H](Cc1ccccc1)C(=O)N1CCC[C@H]1C(=O)N[C@@H](CCCNC(=N)N)C(=O)c1nc2ccccc2n1C
